The assay addresses Mcl-1 protein (UniProtKB Q07820) (Homo sapiens (Human), UniProt Q07820). As to the kind of experiment: Inhibition of Mcl-1 by the fluorescence polarisation assay (Example A, Method A). It counts as binding. The note with it: fluorescence polarization assay. On the procedure:
The relative binding potency of each compound was determined via Fluorescence Polarisation (FP). The method utilised a Fluorescein labelled ligand (Fluorescein-βAla-Ahx-A-REIGAQLRRMADDLNAQY-OH; MW 2,765) which binds to the Mcl-1 protein (such that Mcl-1 corresponds to the UniProtKB® primary accession number: Q07820) leading to an increased anisotropy measured in milli-polarisation (mP) units using a reader. The addition of a compound which binds competitively to the same site as the ligand will result in a greater proportion of unbound ligand in the system indicated by a decrease in mP units.
An 11 point serial dilution of each compound was prepared in DMSO and 2 μl transferred into flat bottomed, low binding, 384-well plate (final DMSO concentration 5%). 38 μl of buffer containing the Fluorescein labelled ligand (final concentration 1 nM) and Mcl-1 protein (final concentration 5 nM) was then added. Buffer components were 10 mM 4-(2-hydroxyethyl)-1-piperazineethanesulfonic acid [HEPES], 150 mM NaCl, pH 7.4 with the addition of 0.05% Tween 20.
Assay plates were incubated for 2 hours at room temperature before FP was measured on a […] Synergy Neo reader ([…], Cut off 510 nm) and mP units calculated. The binding of increasing doses of test compound was expressed as a percentage reduction in mP compared to a window established between ‘5% DMSO only’ and ‘100% inhibition’ controls. 11-point dose response curves were plotted with XL-Fit software using a 4-Parameter Logistic Model (Sigmoidal Dose-Response Model) and the inhibitory concentrations that gave a 50% reduction in mP (IC50) were determined. The Ki values were determined from the IC50 values according to Cer et al, Nucleic Acids Res, 2009, 37 (WebServer issue): W441-W445. Inhibition constants (Ki) are determined from complete binding inhibition curves (cKi) or from estimated from incomplete binding inhibition curves (eKi) in most cases due to low activity.
In general terms: In fluorescence polarisation assays a small probe gives low polarisation when free and higher when bound to something large.

Usually pKi stands for the Ki on a negative log10 scale, so that one unit is a factor of ten.

Molecules are shown by their SMILES. pKi: −log10 of the molar value.

Mcl-1 protein, sequence (Q07820 whole entry): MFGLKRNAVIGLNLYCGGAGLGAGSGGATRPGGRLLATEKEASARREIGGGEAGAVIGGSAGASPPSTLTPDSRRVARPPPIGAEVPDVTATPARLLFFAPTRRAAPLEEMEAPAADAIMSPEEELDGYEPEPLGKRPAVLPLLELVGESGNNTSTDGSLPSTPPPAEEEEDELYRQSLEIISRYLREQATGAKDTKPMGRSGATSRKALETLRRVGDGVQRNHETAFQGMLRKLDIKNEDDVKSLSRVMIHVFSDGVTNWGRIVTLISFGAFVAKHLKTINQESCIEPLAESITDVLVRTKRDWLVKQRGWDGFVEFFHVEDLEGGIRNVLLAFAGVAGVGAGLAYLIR

As to `O=C(O)[C@]1(Nc2cccc(Cl)c2)CC[C@@]2(CC1)c1ccccc1[C@@H]1C[C@@H]12` (single isomer, unassigned) [Example 107, (1r,1′aR*,4r,6′aS*)-4-(3-chloroanilino)-1′a,6′a-dihydro-1′H-spiro[cyclohexane-1,6′-cyclopropa[a]indene]-4-carboxylic acid], the pKi is 5.73.

As for `O=C(O)[C@]1(Nc2cccc(Cl)c2)CC[C@@]2(CC1)c1ccccc1[C@@H]1C[C@@H]12` (single isomer, unassigned) [Example 108, (1r,1′aR*,4r,6′aS*)-4-(3-chloroanilino)-1′a,6′a-dihydro-1′H-spiro[cyclohexane-1,6′-cyclopropa[a]indene]-4-carboxylic acid], the pKi was 5.24. Take `O=C(O)[C@]1(Nc2cccc(Cl)c2)CC[C@@]2(CC1)c1ccccc1CC2[C@H]1C[C@@H]1COc1ccccc1` (single isomer, unassigned) [Example 112, (1r,4r)-4-(3-chloroanilino)-2′-[(1R*,2S*)-2-(phenoxymethyl)cyclopropyl]-2′,3′-dihydrospiro[cyclohexane-1,1′-indene]-4-carboxylic acid]: the pKi is 5.79. For the compound `O=C(O)[C@]1(Nc2cccc(Cl)c2)CC[C@@]2(CC1)c1ccccc1CC2[C@H]1C[C@@H]1COc1cccnc1` (single isomer, unassigned) [Example 113, (1r,4r)-4-(3-chloroanilino)-2′-[(1R*,2S*)-2-{[(pyridin-3-yl)oxy]methyl}cyclopropyl]-2′,3′-dihydrospiro[cyclohexane-1,1′-indene]-4-carboxylic acid], the pKi is 4.65. For `O=C(O)[C@]1(Nc2cccc(Cl)c2)CC[C@@]2(CC1)c1ccccc1CC2[C@H]1C[C@@H]1COc1cccnc1` (single isomer, unassigned) [Example 114, (1r,4r)-4-(3-chloroanilino)-2′-[(1R*,2S*)-2-{[(pyridin-3-yl)oxy]methyl}cyclopropyl]-2′,3′-dihydrospiro[cyclohexane-1,1′-indene]-4-carboxylic acid] the value was 4.56. Take `O=C(O)[C@]1(Nc2cccc(Cl)c2)CC[C@@]2(CC1)c1ccccc1CC2[C@H]1C[C@@H]1COc1cccnc1` (single isomer, unassigned) [Example 115, (1r,4r)-4-(3-chloroanilino)-2′-[(1R*,2S*)-2-{[(pyridin-3-yl)oxy]methyl}cyclopropyl]-2′,3′-dihydrospiro[cyclohexane-1,1′-indene]-4-carboxylic acid]: the pKi was 5.94. On to `O=C(O)[C@]1(Nc2cccc(Cl)c2)CC[C@@]2(CC1)c1ccccc1CC2[C@H]1C[C@@H]1COc1cccnc1` (single isomer, unassigned) [Example 116, (1r,4r)-4-(3-chloroanilino)-2′-[(1R*,2S*)-2-{[(pyridin-3-yl)oxy]methyl}cyclopropyl]-2′,3′-dihydrospiro[cyclohexane-1,1′-indene]-4-carboxylic acid], for which the pKi is 6.05.

Turning to `O=C(O)C1(Nc2cccc(Br)c2)CCC2(CC1)c1ccccc1CC2CCCc1ccccc1` (single isomer, unassigned) [Example 150, (1r,4r)-4-(3-bromoanilino)-2′-(3-phenylpropyl)-2′,3′-dihydrospiro[cyclohexane-1,1′-indene]-4-carboxylic acid], the pKi was 6.65.

Regarding `O=C(O)C1(Nc2cccc(Br)c2)CCC2(CC1)c1ccccc1CC2CCCc1ccccc1` (single isomer, unassigned) [Example 151, (1r,4r)-4-(3-bromoanilino)-2′-(3-phenylpropyl)-2′,3′-dihydrospiro[cyclohexane-1,1′-indene]-4-carboxylic acid], the negative-log Ki (pKi) is 5.87. Then `C[C@H]1c2ccccc2[C@]2(CC[C@@](Nc3cccc(Cl)c3)(C(=O)O)CC2)[C@H]1C` (single isomer, unassigned) [Example 208, (1r,2′R*,3'S*,4r)-4-(3-chloroanilino)-2′,3′-dimethyl-2′,3′-dihydrospiro[cyclohexane-1,1′-indene]-4-carboxylic acid], with 4.50. For `O=C(O)[C@]1(Nc2cccc(Br)c2)CC[C@]2(CC1)c1ccccc1CC2c1ccccc1` (single isomer, unassigned) [Example 210, (1s,4s)-4-(3-bromoanilino)-2′-phenyl-2′,3′-dihydrospiro[cyclohexane-1,1′-indene]-4-carboxylic acid] the value was 4.05.

On to `O=C(O)C1(Nc2cccc(Br)c2)CCC2(CC1)c1ccccc1CC2c1nccs1` (single isomer, unassigned) [Example 223, 4-(3-bromoanilino)-2′-(1,3-thiazol-2-yl)-2′,3′-dihydrospiro[cyclohexane-1,1′-indene]-4-carboxylic acid], for which the pKi was 4.84. Regarding `Cc1noc(C)c1C1Cc2ccccc2C12CCC(Nc1cccc(Br)c1)(C(=O)O)CC2` (single isomer, unassigned) [Example 231, 4-(3-bromoanilino)-2′-(3,5-dimethyl-1,2-oxazol-4-yl)-2′,3′-dihydrospiro[cyclohexane-1,1′-indene]-4-carboxylic acid], the negative-log Ki (pKi) is 5.11.

As to `O=C(O)C1(Nc2cccc(Br)c2)CCC2(CC1)C(c1ccc(Cl)c(Cl)c1)=Cc1ccccc12` (single isomer, unassigned) [Example 233, 4-(3-bromoanilino)-2′-(3,4-dichlorophenyl)spiro[cyclohexane-1,1′-indene]-4-carboxylic acid], the negative logarithm of the Ki (pKi) is 4.36. Then `Cc1ccc(C2=Cc3ccccc3C23CCC(Nc2cccc(Br)c2)(C(=O)O)CC3)cc1Cl` (single isomer, unassigned) [Example 234, 4-(3-bromoanilino)-2′-(3-chloro-4-methylphenyl)spiro[cyclohexane-1,1′-indene]-4-carboxylic acid], with 3.94; and `Cc1cc(C2=Cc3ccccc3C23CCC(Nc2cccc(Br)c2)(C(=O)O)CC3)ccc1Cl` (single isomer, unassigned) [Example 235, 4-(3-bromoanilino)-2′-(4-chloro-3-methylphenyl)spiro[cyclohexane-1,1′-indene]-4-carboxylic acid], with 3.87; and `O=C(O)C1(Nc2cccc(Br)c2)CCC2(CC1)C(c1cc(Cl)cc(Cl)c1)=Cc1ccccc12` (single isomer, unassigned) [Example 236, 4-(3-bromoanilino)-2′-(3,5-dichlorophenyl)spiro[cyclohexane-1,1′-indene]-4-carboxylic acid], with 4.57. Then `COc1cc(OC)cc(C2=Cc3ccccc3C23CCC(Nc2cccc(Br)c2)(C(=O)O)CC3)c1` (single isomer, unassigned) [Example 237, 4-(3-bromoanilino)-2′-(3,5-dimethoxyphenyl)spiro[cyclohexane-1,1′-indene]-4-carboxylic acid], with 4.05. For `Cc1cc(C)cc(C2=Cc3ccccc3C23CCC(Nc2cccc(Br)c2)(C(=O)O)CC3)c1` (single isomer, unassigned) [Example 238, 4-(3-bromoanilino)-2′-(3,5-dimethylphenyl)spiro[cyclohexane-1,1′-indene]-4-carboxylic acid] the value was 4.24; for `COc1ccc(C2Cc3ccccc3[C@]23CC[C@@](Nc2cccc(Cl)c2)(C(=O)O)CC3)cc1C` (single isomer, unassigned) [Example 242, (1r,4r)-4-(3-chloroanilino)-2′-(4-methoxy-3-methylphenyl)-2′,3′-dihydrospiro[cyclohexane-1,1′-indene]-4-carboxylic acid], 5.92.

Regarding `COc1ccc(C2Cc3ccccc3[C@]23CC[C@@](Nc2cccc(Cl)c2)(C(=O)O)CC3)cc1C` (single isomer, unassigned) [Example 243, (1r,4r)-4-(3-chloroanilino)-2′-(4-methoxy-3-methylphenyl)-2′,3′-dihydrospiro[cyclohexane-1,1′-indene]-4-carboxylic acid], the pKi is 6.56. For `COc1ccc(C2Cc3ccccc3[C@]23CC[C@@](Nc2cccc(Cl)c2)(C(=O)O)CC3)c(C)c1` (single isomer, unassigned) [Example 254, (1r,4r)-4-(3-chloroanilino)-2′-(4-methoxy-2-methylphenyl)-2′,3′-dihydrospiro[cyclohexane-1,1′-indene]-4-carboxylic acid] the value was 5.66; for `COc1ccc(C2Cc3ccccc3[C@]23CC[C@@](Nc2cccc(Cl)c2)(C(=O)O)CC3)c(C)c1` (single isomer, unassigned) [Example 255, (1r,4r)-4-(3-chloroanilino)-2′-(4-methoxy-2-methylphenyl)-2′,3′-dihydrospiro[cyclohexane-1,1′-indene]-4-carboxylic acid], 4.94; for `COc1ccc(C2Cc3ccccc3[C@]23CC[C@@](Nc2ccccc2)(C(=O)O)CC3)c(C)c1` (single isomer, unassigned) [Example 256, (1r,4r)-4-anilino-2′-(4-methoxy-2-methylphenyl)-2′,3′-dihydrospiro[cyclohexane-1,1′-indene]-4-carboxylic acid], 4.62.

Source of the values: US20240150293A1, “SPIROCYCLOHEXANE DERIVATIVES, PHARMACEUTICAL COMPOSITIONS CONTAINING THEM AND THEIR USES AS ANTI-APOPTOTIC INHIBITORS” (LES LABORATOIRES SERVIER, priority 2021, published 2024).
